Reference: article PMC5754413, “Mass balance, metabolic disposition, and pharmacokinetics of a single oral dose of regorafenib in healthy human subjects” (Cancer Chemotherapy and Pharmacology, 2017)

Columns and labels:
human feces = assay: Incubation with human feces under anaerobic conditions; type: in vitro ADME; settings: anaerobic conditions, ex vivo
Experimental: Under anaerobic conditions, a suspension of fresh human feces (about 0.5 g) in degassed water (final volume 5 mL) was treated with a solution of [^14C]-labelled metabolite M-2 or metabolite M-7 (1 mg/mL acetonitrile; final concentration: 10 μM). After incubation for 24 h at 37 °C, the incubation mixture was terminated by the addition of acetonitrile (2 mL). After centrifugation (5 min, 3000 rpm), the supernatant (25 μL) was directly subjected to HPLC with the respective off-line radioactivity detection. As negative controls, metabolites M-2 and M-7 were incubated in water for 24 h at 37 °C.

[1] = design: method as in PMID 24896071; settings: co-administration of ketoconazole with a single 160 mg dose of regorafenib; cited from earlier work
CYP3A4 = system: CYP3A4; design: method as in PMID 24896071, PMID 27734608; settings: in vitro data; cited from earlier work
[2] = design: method as in PMID 22421192, PMID 22568966; settings: steady state; cited from earlier work
[3] = Mass balance: urinary and fecal excretion of radioactivity and metabolite pattern in excreta; type: in vivo, human
Experimental: Urine: Urine samples were collected at 12-h intervals post-dose on Day 1 and then at 24-h intervals until 288 h post-dose. Urine was stored at 4 °C until it was divided into aliquots for LSC and subsequent metabolite profiling (aliquots were stored at − 20 °C).
Feces: Fecal samples were collected and homogenized in water on a daily basis until 12 days post-dose. Duplicate aliquots of the homogenates were taken for combustion with oxygen (in preparation for LSC), and separate aliquots were used for metabolite profiling.
Liquid samples: Duplicate aliquots of liquid samples were diluted with 1 mL distilled water, if necessary, and mixed with 10 mL Aquasafe 500 Plus scintillation fluid. Levels of radioactivity were measured by LSC (PerkinElmer 2100) with automatic quench correction by an external standard channel ratio method at 13 °C using Ultima Gold™ as the liquid scintillation cocktail. Lower limits of detection (LLOD) were 30 μg-Eq/L for plasma (sample volume 0.5 mL), 50 μg-Eq/L for whole blood (sample volume 0.3 mL), and 0.016 μg-Eq/g for urine (sample weight 1 g).
Fecal samples: Duplicate aliquots of fecal homogenate (about 0.3 g) were weighed into Combustocones® containing Combustopads® for combustion analysis. Samples were combusted using a Packard Tri-Carb 307 Automatic Sample Oxidizer. The resultant ^14CO2 generated was collected by absorption in Carbo-Sorb (8 mL) to which Permafluor E+ (10 mL) was added. Radioactivity was quantified using a liquid scintillation analyzer (PerkinElmer 2100), with automatic quench correction using an external standard method as urine sample analysis. Samples were allowed to stabilize with respect to heat and light, and each sample was analyzed for 5 min. Prior to calculation of individual results, a background count rate was determined and subtracted from each sample’s count rate. LOD was 0.05 μg-Eq/g (sample weight 0.3 g).
Due to the limited amount of radiocarbon associated with many of the samples, analyses were conducted using HPLC with fraction collection followed by off-line LSC. Samples were analyzed on a 150 × 3 mm Prodigy® ODS-3 100A, 3 µm column (Phenomenex, Aschaffenburg, Germany) protected by 8 × 3 mm Nucleosil® 100-3 C18 HD guard columns (Macherey–Nagel, Düren, Germany). Metabolites were separated with a gradient of aqueous potassium dihydrogen phosphate (1 g/L, pH 2.0, mobile phase A) versus acetonitrile (mobile phase B) at a flow rate of 0.5 mL/min (gradient: 0% B at 0 min, linear to 50% B at 10 min, linear to 60% B at 25 min, linear to 80% B at 26 min, plateau at 80% B to 30 min). The radiochemical profile of [^14C]regorafenib-derived radioactivity was determined for all urine samples, plasma extracts, and fecal homogenate extracts. Here, HPLC fractionation into 96-well plates was followed by off-line LSC (Wallac 1450 MicroBeta liquid scintillation analyzer) after adding 150 μL of scintillation cocktail to each well (Ultima-Flo™ AP, PerkinElmer; sampling rate: 10 s/well) using the Wallac 1450 Microbeta™ Plusliquid detector. Reconstructed radiochemical profiles were compiled from the resulting data.

[4] = Safety assessments in healthy male subjects; type: in vivo, human; settings: single 120 mg dose, four subjects
Experimental: Blood pressure, pulse rate, electrocardiogram, physical examination, urine drug screening, and adverse events were evaluated throughout the study. The investigator obtained and recorded all the observed or reported adverse events, the severity (mild, moderate, or severe) of the events, and the relationship to study drug (in the investigator’s opinion).

[5] = range between subjects, percent of administered dose

## CNC(=O)c1cc(Oc2ccc(NC(=O)Nc3ccc(Cl)c(C(F)(F)F)c3)c(F)c2)ccn1 [Regorafenib, 4-[4-({[4-chloro-3-(trifluoromethyl)phenyl]carbamoyl}amino)-3-fluorophenoxy]-N-methylpyridine-2-carboxamide]
Human feces
  Stability in feces / toward gut flora: stable
[1]
  Increase in mean AUC: 30–40%
  Increase in mean C max: 30–40%
CYP3A4
  Enzyme catalyzing oxidative biotransformation: predominantly catalyzed by CYP3A4
[2]
  Secondary maximum of plasma concentration–time profile: 6 to 8 h
  Tertiary maximum of plasma concentration–time profile: ~24 h
[3]; in vivo
  Dose renally excreted after 96 h: less than 3%
[3]; mean, percent of dose
  Cumulative renal excretion by 96 h: 16.6%
[3]; mean, total radioactivity
  Excretion in feces within 8 days: 67.7%
  Excretion in feces within the first 4 days: 46.3%
[3]; [5]
  Radioactivity eliminated in feces, range: 68.3–76.3%
  Radioactivity excreted via urine, range: 16.2–24.7%
[4]
  Electrocardiograms, laboratory investigations, and vital signs: no clinically relevant changes
[4]; event considered unrelated to study drug
  Treatment-emergent adverse events: mild, non-serious headache
